According to US10738028B2, “Spiro three-membered ring, spiro five-membered ring peptide deformylase inhibitor and use thereof in antibacteria and anti-tumor” (priority 2016, dated 2020):
Read-outs that look alike come from different tables or passages of the source.

What was measured:
Type in all cases: cell-based
[1] = tested on: HCT-116 colorectal cancer cell line; assay: CCK-8 proliferation inhibition; conditions: 72 hours, CCK-8; for inhibition at 30 µM: HCT-116, 72 h
Procedure, shortened: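 Cells seeded at 2000 cells/well, cultured overnight at 37 °C, 5% CO2, then exposed to compound (DMSO; control 1‰ DMSO) for 72 h in McCoy's 5A with 10% newborn bovine serum. Viability read with 1:10 diluted CCK-8.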

[2] = tested on: Enterococcus faecalis (EFA); assay: MIC, two-fold agar dilution (CLSI), clinical isolates
Procedure, shortened: (§1)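 Following the American Clinical and Laboratory Standards Institute procedure, agar two-fold dilution served to determine minimum inhibitory concentrations.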

[3] = tested on: methicillin-resistant Staphylococcus aureus (MRSA); assay: as above; conditions: for Anti-bacterial activity (MIC), strain MRSA 15-1: clinical isolate MRSA 15-1; for Anti-bacterial activity (MIC), strain MRSA 15-2: clinical isolate MRSA 15-2; for Anti-bacterial activity (MIC), strain MRSA 15-3: clinical isolate MRSA 15-3; for Anti-bacterial activity (MIC), strain MRSA 15-4: clinical isolate MRSA 15-4
Procedure, shortened: as §1

[4] = tested on: Escherichia coli (including ESBLs, non-ESBLs); assay: as above; conditions: for Anti-bacterial activity (MIC), strain ECO+ 15-1: clinical isolate ECO+ 15-1; for Anti-bacterial activity (MIC), strain ECO+ 15-2: clinical isolate ECO+ 15-2; for Anti-bacterial activity (MIC), strain ECO+ 15-3: clinical isolate ECO+ 15-3; for Anti-bacterial activity (MIC), strain ECO+ 15-4: clinical isolate ECO+ 15-4; for Anti-bacterial activity (MIC), strain ECO− 15-1: clinical isolate ECO− 15-1; for Anti-bacterial activity (MIC), strain ECO− 15-2: clinical isolate ECO− 15-2; for Anti-bacterial activity (MIC), strain ECO− 15-3: clinical isolate ECO− 15-3; for Anti-bacterial activity (MIC), strain ECO− 15-4: clinical isolate ECO− 15-4
Procedure, shortened: as §1

[5] = tested on: methicillin-sensitive Staphylococcus aureus (MSSA); assay: as above; conditions: for Anti-bacterial activity (MIC), strain MSSA 15-3: clinical isolate MSSA 15-3; for Anti-bacterial activity (MIC), strain MSSA 15-4: clinical isolate MSSA 15-4; for Anti-bacterial activity (MIC), strain MSSA 15-5: clinical isolate MSSA 15-5; for Anti-bacterial activity (MIC), strain MSSA 15-6: clinical isolate MSSA 15-6
Procedure, shortened: as §1

[6] = tested on: Moraxella catarrhalis (BCA); assay: as above
Procedure, shortened: as §1

[7] = tested on: methicillin-resistant Staphylococcus epidermidis (MRSE); assay: as above; conditions: for Anti-bacterial activity (MIC), strain MRSE 15-1: clinical isolate MRSE 15-1; for Anti-bacterial activity (MIC), strain MRSE 15-2: clinical isolate MRSE 15-2; for Anti-bacterial activity (MIC), strain MRSE 15-3: clinical isolate MRSE 15-3; for Anti-bacterial activity (MIC), strain MRSE 15-7: clinical isolate MRSE 15-7
Procedure, shortened: as §1

[8] = tested on: Enterococcus faecium (EFM); assay: as above
Procedure, shortened: as §1

[9] = tested on: methicillin-sensitive Staphylococcus epidermidis (MSSE); assay: as above; conditions: for Anti-bacterial activity (MIC), strain MSSE 15-3: clinical isolate MSSE 15-3; for Anti-bacterial activity (MIC), strain MSSE 15-4: clinical isolate MSSE 15-4; for Anti-bacterial activity (MIC), strain MSSE 15-5: clinical isolate MSSE 15-5; for Anti-bacterial activity (MIC), strain MSSE 15-6: clinical isolate MSSE 15-6
Procedure, shortened: as §1

[10] = tested on: Streptococcus pneoumoniae (SPN); assay: as above
Procedure, shortened: as §1

[11] = tested on: BEL-7402 liver cancer cell line; assay: CCK-8 proliferation inhibition; conditions: for inhibition at 30 µM: Bel-7402, 72 h
Procedure, shortened: (§2)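 Plating at 2000 cells/well, then incubation overnight at 37° C. Next, a range of compound concentrations for 72 hours (control 1‰ DMSO). Finally, medium decanted and CCK-8 diluted 1:10 added.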

[12] = tested on: A549 lung cancer cell line; assay: CCK-8 proliferation inhibition
Procedure, shortened: as §2

[13] = tested on: MGC-803 gastric cancer cell line; assay: CCK-8 proliferation inhibition; conditions: for inhibition at 30 µM: MGC-803, 72 h
Procedure, shortened: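 Cells seeded at 2000 cells/well, cultured overnight at 37 °C, 5% CO2, then exposed 72 h to compound dilutions in medium with 10% newborn bovine serum (1‰ DMSO control). Viability read with 1:10 diluted CCK-8 solution. Media: PC3 in F12; MGC-803 and Jurkat in 1640; MCF-7 in DMEM high glucose.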

[14] = Homo sapiens, concentration of 30 μM
[15] = concentration of 30 μM, 72 hours, 30 µM

Cc1cc(NC(=O)[C@@H]2CC3(CC3)CN2C(=O)[C@@H](CC(=O)NO)CC2CCCC2)no1 [Example 71]
inhibition at 30 µM ([1]; Homo sapiens, concentration of 30 μM, Table 5, read-out: Inhibition of proliferation, Colorectal cancer HCT116): ≥ 30%
inhibition at 30 µM ([1]; Homo sapiens, concentration of 30 μM, read-out: HCT116 inhibition rate/%): 30%
Anti-bacterial activity (MIC) ([2]; strain EFA 15-1): 2 µg/mL
Anti-bacterial activity (MIC) ([2]; strain EFA 15-2): 2 µg/mL
Anti-bacterial activity (MIC) ([2]; strain EFA 15-3): 0.5 µg/mL
Anti-bacterial activity (MIC) ([2]; strain EFA 15-4): 2 µg/mL
Anti-bacterial activity (MIC) ([2]; strain EFA 15-5): 2 µg/mL
Anti-bacterial activity (MIC) ([2]; strain EFA 15-6): 2 µg/mL
Anti-bacterial activity (MIC) ([2]; strain EFA 15-9): 1 µg/mL
Anti-bacterial activity (MIC), strain MRSA 15-1 [3]: 0.125 µg/mL
Anti-bacterial activity (MIC), strain MRSA 15-2 [3]: 1 µg/mL
Anti-bacterial activity (MIC), strain MRSA 15-3 [3]: 0.125 µg/mL
Anti-bacterial activity (MIC), strain MRSA 15-4 [3]: 0.5 µg/mL
Anti-bacterial activity (MIC), strain ECO+ 15-1 [4]: 16 µg/mL
Anti-bacterial activity (MIC), strain ECO+ 15-2 [4]: 16 µg/mL
Anti-bacterial activity (MIC), strain ECO+ 15-3 [4]: 32 µg/mL
Anti-bacterial activity (MIC), strain ECO+ 15-4 [4]: 32 µg/mL
Anti-bacterial activity (MIC), strain ECO− 15-1 [4]: 16 µg/mL
Anti-bacterial activity (MIC), strain ECO− 15-2 [4]: 16 µg/mL
Anti-bacterial activity (MIC), strain ECO− 15-3 [4]: 16 µg/mL
Anti-bacterial activity (MIC), strain ECO− 15-4 [4]: 32 µg/mL
Anti-bacterial activity (MIC), strain MSSA 15-3 [5]: 0.25 µg/mL
Anti-bacterial activity (MIC), strain MSSA 15-4 [5]: 0.125 µg/mL
Anti-bacterial activity (MIC), strain MSSA 15-5 [5]: 0.06 µg/mL
Anti-bacterial activity (MIC), strain MSSA 15-6 [5]: 0.25 µg/mL
Anti-bacterial activity (MIC) ([6]; strain BCA 14-1): 0.5 µg/mL
Anti-bacterial activity (MIC) ([6]; strain BCA 14-4): 0.5 µg/mL
Anti-bacterial activity (MIC) ([6]; strain BCA 14-5): 0.25 µg/mL
Anti-bacterial activity (MIC) ([6]; strain BCA 14-6): 0.5 µg/mL
Anti-bacterial activity (MIC) ([6]; strain BCA 14-7): 0.5 µg/mL
Anti-bacterial activity (MIC) ([6]; strain BCA 14-8): 0.25 µg/mL
Anti-bacterial activity (MIC) ([6]; strain BCA 14-10): 0.125 µg/mL
Anti-bacterial activity (MIC), strain MRSE 15-1 [7]: 0.06 µg/mL
Anti-bacterial activity (MIC), strain MRSE 15-2 [7]: 0.125 µg/mL
Anti-bacterial activity (MIC), strain MRSE 15-3 [7]: 0.125 µg/mL
Anti-bacterial activity (MIC), strain MRSE 15-7 [7]: 0.25 µg/mL
Anti-bacterial activity (MIC) ([8]; strain EFM 15-1): 0.5 µg/mL
Anti-bacterial activity (MIC) ([8]; strain EFM 15-2): 2 µg/mL
Anti-bacterial activity (MIC) ([8]; strain EFM 15-3): 0.25 µg/mL
Anti-bacterial activity (MIC) ([8]; strain EFM 15-4): 2 µg/mL
Anti-bacterial activity (MIC) ([8]; strain EFM 15-5): 0.125 µg/mL
Anti-bacterial activity (MIC) ([8]; strain EFM 15-6): 0.5 µg/mL
Anti-bacterial activity (MIC), strain MSSE 15-3 [9]: 0.16 µg/mL
Anti-bacterial activity (MIC), strain MSSE 15-4 [9]: 0.06 µg/mL
Anti-bacterial activity (MIC), strain MSSE 15-5 [9]: 0.06 µg/mL
Anti-bacterial activity (MIC), strain MSSE 15-6 [9]: 0.06 µg/mL
Anti-bacterial activity (MIC) ([10]; strain SPN 16-2): 2 µg/mL
Anti-bacterial activity (MIC) ([10]; strain SPN 16-4): 0.25 µg/mL
inhibition at 30 µM [11, 14]: 49%
inhibition at 30 µM ([12]; Homo sapiens, A549, 72 h, concentration of 30 μM): 5%
inhibition at 30 µM [13, 14]: 34%

O=C(C[C@@H](CC1CCCC1)C(=O)N1CC2(CC2)C[C@@H]1c1nc2ccccc2[nH]1)NO [Example 76, (R)-4-((R)-6-(1H-benzimidazol-2-yl)-5-azaspiro[2.4]heptane-5-yl)-3-(cyclopentylmethyl)-N-hydroxy-4-oxobutanamide]
IC50 ([1]; Homo sapiens, HCT-116): 10.8 µM
HCT116 inhibition rate/% ([1]; concentration of 30 μM, 30 µM): 87%
Anti-bacterial activity (MIC) ([2]; strain EFA 15-1): > 32 µg/mL
Anti-bacterial activity (MIC) ([2]; strain EFA 15-2): > 32 µg/mL
Anti-bacterial activity (MIC) ([2]; strain EFA 15-3): > 32 µg/mL
Anti-bacterial activity (MIC) ([2]; strain EFA 15-4): > 32 µg/mL
Anti-bacterial activity (MIC) ([2]; strain EFA 15-5): > 32 µg/mL
Anti-bacterial activity (MIC) ([2]; strain EFA 15-6): > 32 µg/mL
Anti-bacterial activity (MIC) ([2]; strain EFA 15-9): > 32 µg/mL
Anti-bacterial activity (MIC), strain MRSA 15-1 [3]: > 32 µg/mL
Anti-bacterial activity (MIC), strain MRSA 15-2 [3]: > 32 µg/mL
Anti-bacterial activity (MIC), strain MRSA 15-3 [3]: > 32 µg/mL
Anti-bacterial activity (MIC), strain MRSA 15-4 [3]: > 32 µg/mL
Anti-bacterial activity (MIC), strain ECO+ 15-1 [4]: > 32 µg/mL
Anti-bacterial activity (MIC), strain ECO+ 15-2 [4]: > 32 µg/mL
Anti-bacterial activity (MIC), strain ECO+ 15-3 [4]: > 32 µg/mL
Anti-bacterial activity (MIC), strain ECO+ 15-4 [4]: > 32 µg/mL
Anti-bacterial activity (MIC), strain ECO− 15-1 [4]: > 32 µg/mL
Anti-bacterial activity (MIC), strain ECO− 15-2 [4]: > 32 µg/mL
Anti-bacterial activity (MIC), strain ECO− 15-3 [4]: > 32 µg/mL
Anti-bacterial activity (MIC), strain ECO− 15-4 [4]: > 32 µg/mL
Anti-bacterial activity (MIC), strain MSSA 15-3 [5]: > 32 µg/mL
Anti-bacterial activity (MIC), strain MSSA 15-4 [5]: > 32 µg/mL
Anti-bacterial activity (MIC), strain MSSA 15-5 [5]: > 32 µg/mL
Anti-bacterial activity (MIC), strain MSSA 15-6 [5]: > 32 µg/mL
Anti-bacterial activity (MIC) ([6]; strain BCA 14-1): 2 µg/mL
Anti-bacterial activity (MIC) ([6]; strain BCA 14-4): > 32 µg/mL
Anti-bacterial activity (MIC) ([6]; strain BCA 14-5): > 32 µg/mL
Anti-bacterial activity (MIC) ([6]; strain BCA 14-6): > 32 µg/mL
Anti-bacterial activity (MIC) ([6]; strain BCA 14-7): > 32 µg/mL
Anti-bacterial activity (MIC) ([6]; strain BCA 14-8): > 32 µg/mL
Anti-bacterial activity (MIC) ([6]; strain BCA 14-10): > 32 µg/mL
Anti-bacterial activity (MIC), strain MRSE 15-1 [7]: > 32 µg/mL
Anti-bacterial activity (MIC), strain MRSE 15-2 [7]: > 32 µg/mL
Anti-bacterial activity (MIC), strain MRSE 15-3 [7]: > 32 µg/mL
Anti-bacterial activity (MIC), strain MRSE 15-7 [7]: > 32 µg/mL
Anti-bacterial activity (MIC) ([8]; strain EFM 15-1): > 32 µg/mL
Anti-bacterial activity (MIC) ([8]; strain EFM 15-2): > 32 µg/mL
Anti-bacterial activity (MIC) ([8]; strain EFM 15-3): > 32 µg/mL
Anti-bacterial activity (MIC) ([8]; strain EFM 15-4): 16 µg/mL
Anti-bacterial activity (MIC) ([8]; strain EFM 15-5): 16 µg/mL
Anti-bacterial activity (MIC) ([8]; strain EFM 15-6): 32 µg/mL
Anti-bacterial activity (MIC), strain MSSE 15-3 [9]: > 32 µg/mL
Anti-bacterial activity (MIC), strain MSSE 15-4 [9]: > 32 µg/mL
Anti-bacterial activity (MIC), strain MSSE 15-5 [9]: > 32 µg/mL
Anti-bacterial activity (MIC), strain MSSE 15-6 [9]: > 32 µg/mL
Anti-bacterial activity (MIC) ([10]; strain SPN 16-2): 8 µg/mL
Anti-bacterial activity (MIC) ([10]; strain SPN 16-4): 4 µg/mL
inhibition at 30 µM [11, 14]: > 50%
IC50 ([11]; Homo sapiens, Bel-7402, 72 hours): 8.58 µM
Inhibition of proliferation, Liver cancer BEL-7402 [11, 15]: 67%
IC50 ([12]; Homo sapiens, A549, 72 hours): 9.29 µM
Inhibition of proliferation, Lung cancer A549 [12, 15]: 94%
inhibition at 30 µM [13, 14]: > 50%
IC50 ([13]; Homo sapiens, MGC-803, 72 hours): 16.6 µM
Inhibition of proliferation, Gastric cancer MGC-803 [13, 15]: 64%
